Where “and” joins values, the source holds several entries; their conditions need not be identical. Equal values may be shown once. Where a SMILES comes first, the peptide text is derived from it. The star is where a group is joined. βNA = c1ccc2cc(N*)ccc2c1
System: C. elegans
Details: Table S2, C. elegans SS assay, 110 μM, averages of 4 data points

Row | Molecule | Percentage of motility inhibition 0 h | Percentage of motility inhibition 24 h
1 | CC1=CC[C@@]23C[C@@H]1C(C)(C)[C@@H]2CC[C@H]3C [(-)-Cedrene] | 0% | 17%
2 | Oc1ccc2c(c1)OC[C@H]1c3cc4c(cc3O[C@@H]21)OCO4 [(-)-Maackiain] | 26% | 26%
3 | Clc1ccc(COC(Cn2ccnc2)c2ccc(Cl)cc2Cl)c(Cl)c1.O=[N+]([O-])O (stereo not drawn) [Miconazole (nitrate)] | 26% | 15%
4 | O=c1cc(-c2ccc(O)c(O)c2)oc2cc(O[C@@H]3O[C@H](CO)[C@@H](O)[C@H](O)[C@H]3O)c(O)c(O)c12 [6‐Hydroxyluteolin 7‐glucoside] | 0% | 10%
5 | O.O=C1C=CC[C@@H]2[C@H]3CCCN4CCC[C@@H](CN12)[C@@H]34 [Sophocarpine (monohydrate)] | 0% | 0%
6 | CN1[C@@H]2CC[C@H]1CC(OC(=O)[C@H](CO)c1ccccc1)C2.CN1[C@@H]2CC[C@H]1CC(OC(=O)[C@H](CO)c1ccccc1)C2.O=S(=O)(O)O (stereo partly drawn) [L‐Hyoscyamine (sulfate)] | 18% | 9%
7 | Rebaudioside B | 6% | 1%
8 | C[C@@H]1O[C@@H]1P(=O)([O-])[O-].[Ca+2] [Fosfomycin (calcium)] | 4% | 0%
9 | COc1ccc(-c2oc3c(CC=C(C)C)c(O[C@@H]4O[C@H](CO)[C@@H](O)[C@H](O)[C@H]4O)cc(O)c3c(=O)c2O[C@@H]2O[C@@H](C)[C@H](O)[C@@H](O)[C@H]2O[C@@H]2O[C@@H](C)[C@H](O)[C@@H](O)[C@H]2O)cc1 [Epmedin C] | 0% | 0%
10 | C=C(C)[C@@H]1CC[C@]2(C(=O)O)CC[C@]3(C)[C@H](CC[C@@H]4[C@@]5(C)CC[C@H](O[C@@H]6OC[C@H](O)[C@H](O)[C@H]6O[C@@H]6O[C@@H](C)[C@H](O)[C@@H](O)[C@H]6O)[C@@](C)(CO)[C@@H]5CC[C@]43C)[C@@H]12 [Pulchinenoside A] | 15% | 7%
11 | COc1cc(O)c2c(=O)cc(-c3ccc(O)c(O)c3)oc2c1 [Hydroxygenkwanin] | 11% | 13%
12 | Phytol | 13% | 5%
13 | COc1ccc(-c2oc3c(CC=C(C)C)c(O[C@@H]4O[C@H](CO)[C@@H](O)[C@H](O)[C@H]4O)cc(O)c3c(=O)c2O[C@@H]2O[C@@H](C)[C@H](O)[C@@H](O[C@@H]3O[C@H](CO)[C@@H](O)[C@H](O)[C@H]3O)[C@H]2O)cc1 [Epimedin A1] | 6% | 5%
14 | Dryocrassin ABBA | 12% | 18%
15 | C[N+]1(C)CCC[C@H]1C(=O)[O-] [Stachydrine] | 0% | 0%
16 | Penitrem A | 0% | 14%
17 | C[C@@H]1O[C@@H](Oc2cc(O)c3c(c2)O[C@H](c2ccc(O)c(O)c2)[C@@H](O)C3=O)[C@H](O)[C@H](O)[C@H]1O [Taxifolin 7‐O‐rhamnoside] | 33% | 12%
18 | CN[C@H]1[C@H](O)[C@H](O[C@@H]2[C@@H](O)[C@H](O[C@H]3O[C@H](C(C)O)[C@@H](O)[C@H](O)[C@H]3N)[C@@H](N)C[C@H]2N)OC[C@@]1(C)O.O=S(=O)(O)O.O=S(=O)(O)O (stereo partly drawn) [G‐418 (disulfate)] | 26% | 11%
19 | C[C@H](CCC(=O)[O-])[C@H]1CC[C@H]2[C@@H]3CC[C@@H]4C[C@H](O)CC[C@]4(C)[C@H]3C[C@H](O)[C@]12C.[Na+] [Deoxycholic acid sodium salt] | 0% | 26%
20 | CC1(O)CCC(C(C)(C)O)CC1.O (stereo not drawn) [Terpin (hydrate)] | 9% | 5%
21 | CC(=O)c1cc2c(CO)cc(O)cc2oc1=O [Armillarisin A] | 0% | 4%
22 | C=C1[C@H]2CC[C@@H]3[C@H]2C(C)(C)CCC[C@]13C [(+)-Longifolene] | 3% | 1%
23 | Pseudoginsenoside F11 | 0% | 22%
24 | COc1ccc([C@@H]2CC(=O)c3c(O)cc(O[C@@H]4O[C@H](CO[C@@H]5O[C@@H](C)[C@H](O)[C@@H](O)[C@H]5O)[C@@H](O)[C@H](O)[C@H]4O)cc3O2)cc1 [Didymin] | 1% | 6%

Row | Molecule | Percentage of motility inhibition 0 h | Percentage of motility inhibition 24 h
25 | CC(C)=CCc1c(O)ccc(-c2coc3cc(O)cc(O)c3c2=O)c1O [Licoisoflavone A] | 0% | 10%
26 | COc1ccc(-c2cc(=O)c3c(O)cc(O[C@@H]4O[C@H](CO[C@@H]5O[C@@H](C)[C@H](O)[C@@H](O)[C@H]5O)[C@@H](O)[C@H](O)[C@H]4O)cc3o2)cc1O [Diosmin] |  | 10% and 4%
27 | Cc1ccc(C(N)=O)cn1 [6‐Methylni cotinamid e] | 0% | 0%
28 | CC[C@H]1OC(=O)C[C@@H](O)[C@H](C)[C@@H](O[C@@H]2O[C@H](C)[C@@H](O)[C@H](N(C)C)[C@H]2O)[C@@H](CCN2C[C@H](C)C[C@H](C)C2)C[C@@H](C)C(=O)/C=C/C(C)=C/[C@@H]1CO[C@@H]1O[C@H](C)[C@@H](O)[C@@H](OC)[C@H]1OC.O=P(O)(O)O [Tilmicosin (phosphate)] | 6% | 10%
29 | CCn1cc(C(=O)[O-])c(=O)c2ccc(C)nc21.[Na+] [Nalidixic acid (sodium salt)] | 0% | 0%
30 | Cl.Cl.NC(N)=NCCC[C@H](NC(=O)[C@@H](N)Cc1ccccc1)C(=O)Nc1ccc2ccccc2c1 [PAβN (dihydrochloride)] (H-Phe-Arg-βNA) | 9% | 6%
31 | COc1cccc(-c2oc3ccccc3c(=O)c2O)c1 [3'‐Methoxyflavonol] | 9% | 0%
32 | CC[C@H]1CN2CC[C@H]1C[C@@H]2[C@@H](O)c1ccnc2ccc(OC)cc12 [Hydroquinidine] | 29% and 50% | 
33 | O=c1c(-c2ccc(O)c(O)c2)coc2c([C@@H]3O[C@H](CO)[C@@H](O)[C@H](O)[C@H]3O)c(O)ccc12 [3'‐Hydroxypuerarin] | 1% | 0%
34 | CN1[C@@H]2CC(O)C[C@H]1[C@@H]1O[C@@H]12 (stereo partly drawn) [Scopine] | 13% | 5%
35 | Cl.Nc1ncnc2nc[nH]c12 [Adenine (hydrochloride)] | 0% | 0%
36 | CC(=O)OC(C)(C)CCC(=O)[C@](C)(O)[C@H]1[C@H](O)C[C@@]2(C)[C@@H]3CC=C4[C@@H](C[C@H](O)C(=O)C4(C)C)[C@]3(C)C(=O)C[C@]12C [Dihydrocucurbitacin B] | 0% | 11%
37 | C[C@]1(O)C[C@@H](O)[C@@H]2C=CO[C@@H](O[C@@H]3O[C@H](CO)[C@@H](O)[C@H](O)[C@H]3O)[C@@H]21 [Ajugol] | 0% | 2%
38 | Cl.Clc1ccc(Cn2c(CN3CCCC3)nc3ccccc32)cc1 [Clemizole (hydrochloride)] | 25% | 69%
39 | COc1cccc2c1cc([N+](=O)[O-])c1c(C(=O)O)cc3c(c12)OCO3 [Aristolochic acid A] |  | 22% and 11%
40 | Benzalkonium chloride | 50% | 58%
41 | CC1(C)S[C@@H]2[C@H](NC(=O)COc3ccccc3)C(=O)N2[C@H]1C(=O)[O-].[K+] [Penicillin V (Potassium)] | 23% | 24%
42 | C=C1[C@@H]2CC[C@H]3[C@]4(C)C[C@H](O[C@@H]5O[C@H](CO)[C@@H](OS(=O)(=O)O)[C@H](OS(=O)(=O)O)[C@H]5OC(=O)CC(C)C)CC(C(=O)[O-])(C(=O)[O-])[C@H]4CC[C@]3(C2)[C@H]1O.[K+].[K+] [Carboxyatractyloside (dipotassium)] | 15% | 18%
43 | COc1cc2c(cc1O)C[C@@H]1NCCc3cc(O)c(OC)c-2c31.Cl [Laurolitsine (hydrochloride)] | 36% | 5%
44 | Vitamin B12 | 34% | 0%
45 | CC(C)=CCC[C@@](C)(O)[C@H]1CC[C@]2(C)[C@@H]1[C@H](O)C[C@@H]1[C@@]3(C)CC[C@H](O[C@@H]4O[C@H](CO)[C@@H](O)[C@H](O)[C@H]4O[C@@H]4O[C@H](CO)[C@@H](O)[C@H](O)[C@H]4O)C(C)(C)[C@@H]3CC[C@]12C [(20R)-Ginsenoside Rg3] | 22% | 15%
46 | CC(=O)NO [Acetohydroxamic acid] | 13% | 4%
47 | Cn1cc[n+](C[C@@]2(C)[C@H](C(=O)[O-])N3C(=O)C[C@H]3S2(=O)=O)n1 [AAI101] | 27% | 0%
48 | O=C([O-])c1ccccc1O.[Na+] [Sodium Salicylate] | 2% | 4%

From publication PMC11855827, “High-Throughput Screening of Five Compound Libraries for Anthelmintic Activity and Toxicity Leads to the Discovery of Two Flavonoid Compounds” (International Journal of Molecular Sciences, 2025)
